Experimental data published in patent US3962230A, “P-hydroxymethylphenylacetamidocephalosporins” (SmithKline & French Laboratories, Inc., priority 1975, dated 1976).
Values joined by “and” are separate entries in the source; they are usually repeats but may differ in a detail not shown here. Equal entries are not always repeated. Where two headings read alike, the source gives them in different places.

Legend:
[1] = system: Klebs. pneumo.; test: ED50 vs Klebs. pneumo.; format: in vivo
[2] = system: Staph. Villaluz; test: MIC vs Staph. Villaluz; format: cell-based
[3] = system: S. aureus; test: MIC vs S. aureus; format: cell-based; conditions: Staphylococcus aureus
[4] = system: Klebs. pneumo.; test: MIC vs Klebs. pneumo.; format: cell-based
[5] = system: Pseudomonas sp.; test: MIC vs Pseudomonas sp.; format: cell-based
[6] = system: E. coli; test: MIC vs E. coli; format: cell-based
[7] = system: Serratia marc.; test: MIC vs Serratia marc.; format: cell-based
[8] = system: Salmonella; test: MIC vs Salmonella; format: cell-based
[9] = system: E. coli; test: ED50 vs E. coli; format: in vivo; conditions: Escherichia coli
[10] = system: Entero. aerog.; test: MIC vs Entero. aerog.; format: cell-based
[11] = system: Shigella; test: MIC vs Shigella; format: cell-based
[12] = system: Strep. faecalis; test: MIC vs Strep. faecalis; format: cell-based; conditions: Enterococcus faecalis
[13] = Escherichia coli, second column, read-out: MIC

Compound	ED50 ([1]; po) [mg/kg]	ED50 ([1]; sc) [mg/kg]	MIC [2] [µg/mL]	MIC ([3]; first column) [µg/mL]	MIC ([3]; second column) [µg/mL]	MIC ([4]; first column) [µg/mL]	MIC ([4]; second column) [µg/mL]	MIC [5] [µg/mL]	MIC ([6]; Escherichia coli, first column, read-out: MIC) [µg/mL]	MIC [6, 13] [µg/mL]	MIC [7] [µg/mL]	MIC [8]	ED50 ([9]; po) [mg/kg]	ED50 ([9]; sc) [mg/kg]	MIC [10] [µg/mL]	MIC [11] [µg/mL]	MIC [12] [µg/mL]	MIC [6] [µg/mL]
CC1=C(C(=O)O)N2C(=O)[C@@H](NC(=O)C(N)c3ccc(CO)cc3)[C@H]2SC1 (mixture of isomers) [Compound 47216, 7β-(DL-α-Amino-p-hydroxymethylphenylacetamido)desacetoxycephalosporanic acid]	50	> 50	200	6.3	25	25	25	> 200	25	50	> 200	25 µg/mL	29	33	50	25		
CC(=O)OCC1=C(C(=O)O)N2C(=O)[C@@H](NC(=O)C(N)c3ccc(CO)cc3)[C@H]2SC1 (mixture of isomers) [Compound 37316, 7β-(DL-α-amino-p-hydroxymethylphenylacetamido)cephalosporanic acid]	> 50	20	100	12.5	6.3		25	> 200		25	> 200	12.5 µg/mL and 25 μg/me	> 50	8.7			200	50
